Assay results reported in patent US20210379153A1, “COMBINATION THERAPIES COMPRISING SIRP ALPHA-BASED CHIMERIC PROTEINS” (Shattuck Labs, Inc., priority 2018, published 2021).

What was measured:
[1] = target: recombinant hCD47 and recombinant hCD40 (Homo sapiens, UniProt P25942+Q08722); assay: Functional dual ELISA (hCD40 capture, hCD47-His detection); assay type: binding
[2] = system: Toledo lymphoma cells; assay: Phagocytosis of Toledo lymphoma cells by human monocyte derived macrophages (flow cytometry); assay type: cell-based; conditions: combination with rituximab
Experimental: (§1) FIG. 8D: Macrophage:Toledo lymphoma co-cultures were harvested 2 hours into phagocytosis assays in the presence of rituximab ([…]), SIRPα-Fc-CD40L ([…]), or the combination of both agents. Macrophages were isolated by CD11b+ FACS, RNA was prepared, cDNA synthesized, and gene expression (IFNa1, IFNb1, CD80, and CD86) assessed by qRT-PCR. Fold change was calculated using DDCT and values obtained from the housekeeping gene ACTB, and the corresponding values from untreated samples. […] After 2 hours, co-cultures were isolated from tissue culture vessels and were stained with a fluorescently conjugated CD11b antibody to discriminate macrophages. Cells were then assessed by flow cytometry for the co-localization of fluorescent signal from both cells types. Identical assays were set up where macrophages were pre-incubated for 1 hour with 20 μg/mL of a commercially available Fc block cocktail or with 20 μg/mL of a CD40 blocking antibody or with 5 μg/mL of a calreticulin blocking peptide. FIG. 8G: RAW 264.7-Lucia ISG cells were cultured with A20 lymphoma cells in the presence of […] of mSIRPα-Fc-CD40L, recombinant Fc-mCD40L, mSIRPα-Fc, or their combination, 1 mg/mL anti-mCD20, or the combination of mSIRPα-Fc-CD40L and anti-mCD20. After 24-hours type I interferon induced luminescence was assessed using a luminometer. The maximum luminescence (RLU) from each experiment was set to 1, and all other samples were normalized accordingly. Values from repeat experiments are shown.
In contrast, phagocytosis-stimulating activity of the combination was not impacted when macrophages were pre-treated with a CD40-blocking antibody (“CD40 Block”).

[3] = system: IFNα1, IFNβ1, CD80 and CD86 expression in macrophages; assay: qRT-PCR of macrophages sorted from macrophage:Toledo lymphoma co-cultures; assay type: cell-based, human; set-up: macrophage activation and type I interferon gene expression: dose or concentration left out as unconfirmed
Experimental: as §1
RNA was prepared from macrophages isolated using fluorescent activated cell sorting (FACS) from SIRPα-Fc-CD40L/Rituximab treated co-cultures macrophages and Toledo lymphoma cells. The RNA was assessed by qRT-PCR for expression of IFNα1 and IFNβ1, and the macrophage activation markers CD80 and CD86.

[4] = system: splenic dendritic cells; assay: In vivo splenic dendritic cell activation; set-up: species or system mice; conditions: mouse
Experimental: For each panel, the samples are (left to right): untreated, sheep RBCs, αCD47 (MIAP301), αSIRPα (P84), mSIRPα-Fc-CD40L, mSIRPα-Fc-CD40L (24 Hrs), and αCD47 (MIAP301) (24 hrs). FIG. 9B is a quantitation of in vivo dendritic cell activation corresponding to FIG. 9A. Shown is the absolute percent of CD4+ and CD8+ dendritic cells; also gated on CD11c and DC1R2. In FIG. 9B, for each panel, the samples are (left to right): untreated, sheep RBCs, αCD47 (MIAP301), αSIRPα (P84), SIRPα-Fc-CD40L (150 μg), SIRPα-Fc-CD40L (300 μg), SIRPα-Fc-CD40L (300 μg) (24 Hrs), and αCD47 (MIAP301) (24 hrs).
An in vivo assay to examine SIRPα/CD47 function in mice was describe in Yi et al., “Splenic Dendritic Cells Survey Red Blood Cells for Missing Self-CD47 to Trigger Adaptive Immune Responses. Immunity. 2015; 43(4):764-75) (the contents of which is incorporated by reference in its entirety). This assay detects the activation status of splenic dendritic cells in response to SIRPα/CD47 inhibitors or to infused sheep red blood cells (RBC).
After 6 or 24 hours, mice were euthanized and their spleens excised, dissociated, and assessed by flow cytometry for populations of activated CD4+ dendritic cells (DCs) (FIG. 9A, left panel) or CD8+ dendritic cells (FIG. 9A, right panel); both populations of dendritic cells were also positive for MHC II (I-Ab), CD11c, and DC1R2.

[5] = system: CT26 tumors; assay: Syngeneic CT26 colon tumor model vs CD40 agonist and CD47 blocking antibodies (Example 11); assay type: in vivo, mice
Excerpt: Mice were inoculated with CT26 tumors on day 0 and treated at a later starting date than FIG. 20A with mSIRPα-Fc-CD40L ARC on days 7, 9, and 11. […] In FIG. 20D and FIG. 20E, BALB/C mice were inoculated with WEHI3 tumors (FIG. 20D) or A20 tumors (FIG. 20E) subcutaneously on the rear flank, and then treated via IP injection with anti-CD20 or mSIRPα-Fc-CD40L on days 7, 9, and 11 (WEHI3) or days 10, 12, and 14 (A20); when tumors were established and reached approximately 57-60 mm^3. A cohort of mice were pre-treated with an interferon alpha receptor 1 (IFNAR1) blocking antibody ([…] by IP injection) on days −1, 1, and 10 (WEHI3) or on days −1, 1, and 13 (A20). […] Samples were normalized to untreated animals.
Implanted CT26 tumors were allowed to grow to […] before treatment was initiated with a fixed regimen of two doses of either a CD40 agonist antibody (clone FGK4.5), a CD47 blocking antibody (clone MIAP301), a combination of the two antibodies, or the murine SIRPα-Fc-CD40L chimeric protein.

[6] = system: HCC1954 (high Her2-expressing breast cancer cell line); assay: Macrophage engulfment of HCC1954 cells; assay type: cell-based, human; conditions: combination with anti-Her2 antibody (trastuzumab); vs low Her2-expressing tumor cells
[7] = Repeat-dose safety and activity study in cynomolgus macaques; assay type: in vivo
Experimental: FIG. 21 is a graph showing cynomolgus macaques that were treated with vehicle, or 0.1, 1, 10, and 40 mg/kg of SIRPα-Fc-CD40L. Blood chemistry analysis assessed peripheral erythrocyte counts, hemoglobin levels, and hematocrit. In addition, the fold-change in lymphocyte count from pre-dose to 24 hours post-dose is shown.
The experiments of this example tested the safety and activity of the human SIRPα-Fc-CD40L chimeric protein following repeat doses in cynomolgus macaques. Briefly, naïve cynomolgus macaques were administered the human SIRPα-Fc-CD40L chimeric protein by intravenous infusion every week, for five consecutive weeks, at doses of 0.1, 1, 10 and 40 mg/kg. Standard hematology and clinical chemistry parameters were collected before and after each dose.
Receptor occupancy was evaluated on circulating CD40+ lymphocytes.

Substance: SIRPα-Fc-CD40L: generic name of the SIRPαECD-Fc-CD40LECD chimeric protein; human or murine version according to the experiment
- simultaneous binding of SIRPα-domain to hCD47 and CD40L-domain to hCD40 [1]: simultaneous binding
- phagocytosis-stimulating activity ([2]; CALR Block (calreticulin blocking peptide)): unable to reduce
- phagocytosis-stimulating activity ([2]; CD40 Block): not impacted
- phagocytosis-stimulating activity ([2]; Fc Block): partially inhibited
- phagocytosis-stimulating activity ([2]; calreticulin blocking peptide and Fc receptor block together): greatly reduced
- induction of type I interferon genes ([3]; combination with rituximab): enhanced
- macrophage activation and type I interferon gene expression ([3]; monotherapy, 2 hours): induced macrophage activation and the expression of type I interferon genes
- proportion of overall splenic DCs vs antibody treated groups [4]: higher proportion of overall splenic DCs
- proportion of AH1-tetramer positive CD8+ T cells in tumor and spleen ([5]; 13 days following tumor inoculation): increase in the proportion
- therapeutic benefit with CD4 depletion ([5]; antibody-mediated depletion of CD4+ cells): partially required
- therapeutic benefit with CD8 depletion ([5]; antibody-mediated depletion of CD8+ cells): completely eliminated the therapeutic benefit
- macrophage engulfment of tumor cells [6]: more effective
- total number of lymphocytes (episodic fluctuation) ([7]; before and after each dose): did not depart from the upper and lower range of normal
- number of CD40+ cells in the peripheral blood ([7]; cynomolgus monkey, in vivo): dose-dependent decrease
- serum cytokines/chemokines (CCL2, CXCL9, CXCL10, IL-6, IL-15, IL-17A, IL-23) ([7]; following each infusion): dose-dependent increases
